# Laboratory results as given in US20240327382A1 (ALMAC DISCOVERY LIMITED, priority 2021, published 2024).
# Molecular target: T1, Full-length USP19 (Homo sapiens, UniProt O94966)
# T1 construct: Full-length USP19 was purchased from Boston Biochem (E-576); purchased Boston Biochem E-576
# T1 sequence (O94966 1-1318): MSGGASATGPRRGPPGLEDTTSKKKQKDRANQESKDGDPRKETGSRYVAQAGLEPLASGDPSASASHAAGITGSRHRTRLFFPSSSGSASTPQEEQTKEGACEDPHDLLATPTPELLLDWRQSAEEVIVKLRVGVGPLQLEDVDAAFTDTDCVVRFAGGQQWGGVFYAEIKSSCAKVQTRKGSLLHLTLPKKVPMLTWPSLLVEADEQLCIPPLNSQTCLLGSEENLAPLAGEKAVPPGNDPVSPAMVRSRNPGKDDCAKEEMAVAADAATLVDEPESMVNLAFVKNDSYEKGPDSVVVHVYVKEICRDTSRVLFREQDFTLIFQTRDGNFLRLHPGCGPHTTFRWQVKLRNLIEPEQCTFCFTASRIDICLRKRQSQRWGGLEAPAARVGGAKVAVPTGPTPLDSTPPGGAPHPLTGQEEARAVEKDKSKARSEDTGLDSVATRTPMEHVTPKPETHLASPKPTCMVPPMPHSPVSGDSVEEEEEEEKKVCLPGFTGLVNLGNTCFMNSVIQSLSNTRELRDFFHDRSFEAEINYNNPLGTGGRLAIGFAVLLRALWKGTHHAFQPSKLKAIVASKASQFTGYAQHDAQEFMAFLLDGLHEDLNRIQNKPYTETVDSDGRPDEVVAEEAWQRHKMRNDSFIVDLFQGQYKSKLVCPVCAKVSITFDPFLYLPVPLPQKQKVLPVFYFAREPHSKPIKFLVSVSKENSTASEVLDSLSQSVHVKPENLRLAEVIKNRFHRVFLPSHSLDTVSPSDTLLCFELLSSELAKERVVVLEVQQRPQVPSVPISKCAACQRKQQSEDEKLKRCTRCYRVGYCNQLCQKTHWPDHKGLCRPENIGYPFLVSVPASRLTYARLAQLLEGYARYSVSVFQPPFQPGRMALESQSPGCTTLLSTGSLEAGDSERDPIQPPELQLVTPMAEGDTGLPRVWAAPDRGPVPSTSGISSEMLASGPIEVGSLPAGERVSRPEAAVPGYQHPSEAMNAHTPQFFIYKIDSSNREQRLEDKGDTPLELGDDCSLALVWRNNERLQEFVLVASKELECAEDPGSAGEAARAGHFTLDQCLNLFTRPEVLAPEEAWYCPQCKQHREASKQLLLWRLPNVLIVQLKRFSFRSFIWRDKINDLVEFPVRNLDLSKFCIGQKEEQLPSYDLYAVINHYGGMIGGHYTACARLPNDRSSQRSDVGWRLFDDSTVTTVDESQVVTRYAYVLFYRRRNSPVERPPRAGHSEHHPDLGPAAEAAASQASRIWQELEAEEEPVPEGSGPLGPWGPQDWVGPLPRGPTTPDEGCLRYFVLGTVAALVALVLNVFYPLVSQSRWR
# Assay: USP19 fluorescence polarisation (FP) assay, Ubiquitin-Lys-TAMRA substrate
# Assay type: biochemical
# Conditions: average of at least two duplicate experiments
# Method in brief: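 Fluorescence polarisation (excitation 530 nm, parallel and perpendicular emission at 575 nm) was recorded every 15 min for 90 min after adding the ubiquitin-Lys-TAMRA isopeptide (500 nM as dispensed). Beforehand, the full-length enzyme (2.5 nM as dispensed) sat 30 min at RT with compound diluted from 200 μM to 2 μM in HEPES pH 7.4 buffer with 150 mM NaCl, 5 mM DTT, 0.05% BSA and 0.05% CHAPS. Values normalised to uninhibited wells gave IC50s by non-linear fitting, each the mean of two or more duplicate runs.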
row,SMILES,IC50
1,"C[C@H]1CN(C(=O)N2CC[C@@H](Cn3cnc(-c4ccccc4)cc3=O)C3(CCCC3)C2)[C@H](c2cc(F)ccc2F)CO1 [Example 201, 3-(((R)-7-((2,5R)-5-(2,5-Difluorophenyl)-2-methylmorpholine-4-carbonyl)-7-azaspiro[4.5]decan-10-yl)methyl)-6-phenylpyrimidin-4(3H)-one]",< 10 nM
2,"N[C@@H]1CCN(C(=O)N2CC[C@@H](Cn3cnc(-c4ccccc4)cc3=O)C3(CCCC3)C2)[C@H](c2cc(F)cc(F)c2)C1 [Example 107, 3-[[(10R)-7-[(2S,4R)-4-amino-2-(3,5-difluorophenyl)piperidine-1-carbonyl]-7-azaspiro[4.5]decan-10-yl]methyl]-6-phenyl-pyrimidin-4-one]",< 10 nM
3,"CN[C@@H]1CCN(C(=O)N2CC[C@@H](Cn3cnc4ccc(F)cc4c3=O)C3(CCCC3)C2)[C@H](c2ccc(F)cc2F)C1 [Example 191, 3-(((R)-7-((2S,4R)-2-(2,4-Difluorophenyl)-4-(methylamino)piperidine-1-carbonyl)-7-azaspiro[4.5]decan-10-yl)methyl)-6-fluoroquinazolin-4(3H)-one]",< 10 nM
4,"N[C@@H]1CCN(C(=O)N2CC[C@@H](Cn3ccc(Cl)cc3=O)C3(CCCC3)C2)[C@H](c2ccccc2)C1 [Example 67, 1-(((R)-7-((2S,4R)-4-Amino-2-phenylpiperidine-1-carbonyl)-7-azaspiro[4.5]decan-10-yl)methyl)-4-chloropyridin-2(1H)-one]",< 10 nM
5,"O=C(N1CC[C@H](Cn2cnc(-c3ccccc3)cc2=O)C2(CCCC2)C1)N1CCNC[C@H]1c1ccccc1 (single isomer, unassigned) [Example 13]",100 to 1000 nM
6,"COc1ccccc1-c1cc(=O)n(C[C@@H]2CCN(C(=O)N3CCNC[C@H]3c3cc(F)ccc3F)CC23CCCC3)cn1 [Example 116, 3-(((R)-7-((R)-2-(2,5-Difluorophenyl)piperazine-1-carbonyl)-7-azaspiro[4.5]decan-10-yl)methyl)-6-(2-methoxyphenyl)pyrimidin-4(3H)-one]",< 10 nM
7,"C[C@H](CC(F)(F)F)C(=O)N1CCC(N)(Cn2cnc(-c3ccccc3)cc2=O)C2(CCCC2)C1 (stereo partly drawn) [Example 49, 3-((10-Amino-7-((R)-4,4,4-trifluoro-2-methylbutanoyl)-7-azaspiro[4.5]decan-10-yl)methyl)-6-phenylpyrimidin-4(3H)-one]",100 to 1000 nM
8,"CN(C)[C@@H]1CCN(C(=O)N2CC[C@@H](Cn3cnc4ccc(F)cc4c3=O)C3(CCCC3)C2)[C@H](c2cc(F)ccc2F)C1 [Example 174, 3-(((R)-7-((2S,4R)-2-(2,5-Difluorophenyl)-4-(dimethylamino)piperidine-1-carbonyl)-7-azaspiro[4.5]decan-10-yl)methyl)-6-fluoroquinazolin-4(3H)-one]",< 10 nM

# Further lines, results first:
row,IC50,SMILES
1,10 to 100 nM,"O=C(N[C@@H]1CCN(C(=O)N2CC[C@@H](Cn3cnc4ccc(F)cc4c3=O)C3(CCCC3)C2)[C@H](c2cc(F)ccc2F)C1)C1CC1 [Example 173, N-((2S,4R)-2-(2,5-Difluorophenyl)-1-((R)-10-((6-fluoro-4-oxoquinazolin-3(4H)-yl)methyl)-7-azaspiro[4.5]decane-7-carbonyl)piperidin-4-yl)cyclopropanecarboxamide]"
2,< 10 nM,"CC1(N[C@@H]2CCN(C(=O)N3CC[C@@H](Cn4ccc(-c5ccccc5)cc4=O)C4(CCCC4)C3)[C@H](c3ccccc3)C2)COC1 [Example 111, 1-(((R)-7-((2S,4R)-4-((3-Methyloxetan-3-yl)amino)-2-phenylpiperidine-1-carbonyl)-7-azaspiro[4.5]decan-10-yl)methyl)-4-phenylpyridin-2(1H)-one]"
3,10 to 100 nM,"CC[C@@H]1C[C@H](N)CCN1C(=O)N1CC[C@@H](Cn2ccc(-c3ccccc3)cc2=O)C2(CCCC2)C1 [Example 68, 1-(((R)-7-((2R,4R)-4-Amino-2-ethylpiperidine-1-carbonyl)-7-azaspiro[4.5]decan-10-yl)methyl)-4-phenylpyridin-2(1H)-one]"
4,< 10 nM,"CN[C@@H]1CCN(C(=O)N2CC[C@@H](Cn3ccc(-c4ccccc4)cc3=O)C3(CCCC3)C2)[C@H](c2ccc(F)cc2F)C1 [Example 95, 1-(((R)-7-((2S,4R)-2-(2,4-Difluorophenyl)-4-(methylamino)piperidine-1-carbonyl)-7-azaspiro[4.5]decan-10-yl)methyl)-4-phenylpyridin-2(1H)-one]"
5,< 10 nM,"CN[C@@H]1CCN(C(=O)N2CC[C@@H](Cn3ccc(-c4ccccc4OC)cc3=O)C3(CCCC3)C2)[C@H](c2cc(F)cc(F)c2)C1 [Example 126, 1-(((R)-7-((2S,4R)-2-(3,5-Difluorophenyl)-4-(methylamino)piperidine-1-carbonyl)-7-azaspiro[4.5]decan-10-yl)methyl)-4-(2-methoxyphenyl)pyridin-2(1H)-one]"
6,< 10 nM,"CC(C)N[C@@H]1CCN(C(=O)N2CC[C@@H](Cn3cnc(-c4ccccc4)cc3=O)C3(CCCC3)C2)[C@H](c2cc(F)cc(F)c2)C1 [Example 192, 3-(((R)-7-((2S,4R)-2-(3,5-Difluorophenyl)-4-(isopropylamino)piperidine-1-carbonyl)-7-azaspiro[4.5]decan-10-yl)methyl)-6-phenylpyrimidin-4(3H)-one]"
7,< 10 nM,"CCN[C@@H]1CCN(C(=O)N2CC[C@@H](Cn3cnc(-c4ccccc4)cc3=O)C3(CCCC3)C2)[C@H](c2cc(F)ccc2F)C1 [Example 156, 3-(((R)-7-((2S,4R)-2-(2,5-Difluorophenyl)-4-(ethylamino)piperidine-1-carbonyl)-7-azaspiro[4.5]decan-10-yl)methyl)-6-phenylpyrimidin-4(3H)-one]"
8,10 to 100 nM,"CN[C@@H]1CCN(C(=O)N2CC[C@@H](CN3CC(c4ccccc4)=CC3=O)C3(CCCC3)C2)[C@H](c2cc(F)ccc2F)C1 [Example 178, 1-(((R)-7-((2S,4R)-2-(2,5-Difluorophenyl)-4-(methylamino)piperidine-1-carbonyl)-7-azaspiro[4.5]decan-10-yl)methyl)-4-phenyl-1,5-dihydro-2H-pyrrol-2-one]"
9,100 to 1000 nM,"O=C(N1CCC(Cn2cnc(-c3ccccc3)cc2=O)CC1)N1CCNC[C@H]1c1ccccc1 [Example 1, (R)-6-Phenyl-3-((1-(2-phenylpiperazine-1-carbonyl)piperidin-4-yl)methyl)pyrimidin-4(3H)-one]"
10,100 to 1000 nM,"O=C(N1CCC(Cn2ccc(-c3ccccc3)cc2=O)CC1)N1CCNC[C@H]1c1ccccc1 [Example 6, (R)-4-Phenyl-1-((1-(2-phenylpiperazine-1-carbonyl)piperidin-4-yl)methyl)pyridin-2(1H)-one]"
